Test system: genes with lengthy repetitive nucleotide sequences (Q81-GFP, mutant HTT)
Assay: RT-qPCR of (CAG)n-GFP / HTT mRNA with SUPT4H siRNA knockdown plus tropolone
Type: cell-based
Details: together with SUPT4H siRNA; only in the genes with lengthy repetitive nucleotide sequences
Description: ST14A, Hdh^Q7/Q7 and Hdh^Q111/Q111 were maintained in DMEM (HyClone) supplemented with 15% fetal bovine serum at 33° C. with 5% CO2. ST14A^tet is a genetic engineered stable line, which integrated pTet-Off construct in the genome of ST14A cells and could trigger the expression of pTRE2-(CAG)n-eGFP plasmid in the absence of tetracycline. Lipofectamine 2000 (Invitrogen) transfection reagent was used to deliver siRNA or together with pTRE2-(CAG)n-eGFP into cells. 100 nM of SUPT4H siRNA (DHARMACON, ON-TARGET plus SMART pool, L-048866-01) and (DHARMACON, J-086342-10, 5′-[…]-3′ (SEQ ID NO: 1) and 5′-[…]-(SEQ ID NO: 2)) were used to knock-down SUPT4H expression in mice and rat cells, respectively.
For mammalian cells, total RNA was isolated using TRIzol reagent as per manufacturer's instruction (Invitrogen). […] The amount of cDNAs were quantified by StepOnePlus Real-Time qPCR system (Applied Biosystems) and analyzed by the Quantitative-Comparative CT (AACT) program. Rat SUPT4H, eGFP, mouse SUPT4H, and Mouse HTT were measured using corresponding primer sets as indicated in TABLE 3. snRNA U6 was included as a loading control. […]
Please refer to FIG. 6. […] A relative high signal of R-loops was detected in (CAG)7-eGFP, but this signal is not increased by tropolone. […] RNA was extracted and analyzed by real-time RT-qPCR to measure the quantity of (CAG)n-GFP, SUPT4H and snRNA U6. […]

O=c1cccccc1O [Tropolone]
level of transcriptional reduction by SUPT4H siRNA knockdown upon tropolone treatment: further increased
